Legend:
Assay in all cases: MIC of compounds alone and combined with antibacterials, broth microdilution (CLSI)
Type in all cases: cell-based
[1] = test system: Klebsiella oxytoca (KOX) isolates
Method in brief: (§1)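 Antibacterial MICs in combination were determined at every compound concentration tested, alongside compound MICs alone. Bacteria grew in cation-adjusted Mueller-Hinton broth starting from 5.10^5 CFU/mL, incubated at 35° C for 16-20 h, and endpoints were the lowest concentrations with no visible growth.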

[2] = test system: Providencia rettgeri (PRE) isolates
Method in brief: as §1

[3] = test system: Morganella morganii (MMO) isolates
Method in brief: as §1

[4] = test system: Klebsiella pneumoniae (KPN) isolates
Method in brief: as §1

C=CC1=C(C(=O)O)N2C(=O)[C@@H](NC(=O)/C(=N\OCC(=O)O)c3csc(N)n3)[C@H]2SC1 [FIX, Cefixime]
MIC ATB in combination ([1]; KOX UFR21, AF2 @ 8 μg/mL): 2 mg/L | MIC ATB in combination ([1]; KOX UFR21, AF3 @ 8 μg/mL): 4 mg/L | MIC ATB in combination ([1]; KOX UFR173, AF2 @ 8 μg/mL): <=0.25 μg/mL | MIC ATB in combination ([1]; KOX UFR173, AF3 @ 8 μg/mL): <=0.25 μg/mL | MIC ATB in combination ([1]; KOX UFR173, CLA @ 4 μg/mL): 4 mg/L | MIC ATB in combination ([1]; KOX UFR223, AF2 @ 8 μg/mL): <0.25 mg/L | MIC ATB in combination ([1]; KOX UFR223, AF3 @ 8 μg/mL): <0.25 mg/L | MIC ATB in combination ([1]; KOX UFR223, CLA @ 4 μg/mL): <=0.25 μg/mL | MIC ATB in combination ([1]; KOX UFR224, AF2 @ 8 μg/mL): <0.25 mg/L | MIC ATB in combination ([1]; KOX UFR224, AF3 @ 8 μg/mL): <0.25 mg/L | MIC ATB in combination ([1]; KOX UFR224, CLA @ 4 μg/mL): 8 mg/L | MIC ([1]; strain KOX UFR21, genotype TEM-1, CTX-M-15, OXA-48): >128 mg/L | MIC ([1]; strain KOX UFR173, genotype OXY2-2): 16 mg/L | MIC ([1]; strain KOX UFR223, genotype SHV-11, OXA-48): <=0.125 μg/mL | MIC ([1]; strain KOX UFR224, genotype CTX-M-15, OXA-48): >128 mg/L | MIC ATB in combination ([2]; PRE UFR99, AF2 @ 8 μg/mL): >128 mg/L | MIC ATB in combination ([2]; PRE UFR99, AF3 @ 8 μg/mL): >128 mg/L | MIC ATB in combination ([2]; PRE UFR99, CLA @ 4 μg/mL): >128 mg/L | MIC ([2]; strain PRE UFR96, genotype CTX-M-15, NDM-1): >128 mg/L | MIC ATB in combination ([2]; strain PRE UFR96, with AF2 @ 8 μg/mL): <0.25 mg/L | MIC ATB in combination ([2]; strain PRE UFR96, with AF3 @ 8 μg/mL): <0.25 mg/L | MIC ATB in combination ([2]; strain PRE UFR96, with CLA @ 4 μg/mL): >128 mg/L | MIC ([2]; strain PRE UFR97, genotype TEM-1, NDM-1): >128 mg/L | MIC ATB in combination ([2]; strain PRE UFR97, with AF2 @ 8 μg/mL): >128 mg/L | MIC ATB in combination ([2]; strain PRE UFR97, with AF3 @ 8 μg/mL): >128 mg/L | MIC ATB in combination ([2]; strain PRE UFR97, with CLA @ 4 μg/mL): >128 mg/L | MIC ([2]; strain PRE UFR99, genotype OXA-1, OXA-181): >128 mg/L | MIC ([2]; strain PRE UFR236, genotype TEM-1, OXA-48): 32 mg/L | MIC ATB in combination ([2]; strain PRE UFR236, with AF2 @ 8 μg/mL): <=0.25 μg/mL | MIC ATB in combination ([2]; strain PRE UFR236, with AF3 @ 8 μg/mL): <=0.25 μg/mL | MIC ATB in combination ([2]; strain PRE UFR236, with CLA @ 4 μg/mL): 32 mg/L | MIC ATB in combination ([3]; MMO 200321, AF2 @ 8 μg/mL): 1 mg/L | MIC ATB in combination ([3]; MMO 200321, AF3 @ 8 μg/mL): 1 mg/L | MIC ATB in combination ([3]; MMO 200321, CLA @ 4 μg/mL): 32 mg/L | MIC ATB in combination ([3]; MMO UFR144, AF2 @ 8 μg/mL): 1 mg/L | MIC ATB in combination ([3]; MMO UFR144, AF3 @ 8 μg/mL): 0.5 mg/L | MIC ATB in combination ([3]; MMO UFR144, CLA @ 4 μg/mL): 32 mg/L | MIC ATB in combination ([3]; MMO UFR240, AF2 @ 8 μg/mL): <=0.25 μg/mL | MIC ATB in combination ([3]; MMO UFR240, AF3 @ 8 μg/mL): <=0.25 μg/mL | MIC ATB in combination ([3]; MMO UFR240, CLA @ 4 μg/mL): 8 mg/L | MIC ATB in combination ([3]; MMO UFR241, AF2 @ 8 μg/mL): 2 mg/L | MIC ATB in combination ([3]; MMO UFR241, AF3 @ 8 μg/mL): 0.5 mg/L | MIC ATB in combination ([3]; MMO UFR241, CLA @ 4 μg/mL): 32 mg/L | MIC ATB in combination ([3]; MMO UFR242, AF2 @ 8 μg/mL): <=0.25 μg/mL | MIC ATB in combination ([3]; MMO UFR242, AF3 @ 8 μg/mL): 1 mg/L | MIC ATB in combination ([3]; MMO UFR242, CLA @ 4 μg/mL): 64 mg/L | MIC ATB in combination ([3]; MMO UFR243, AF2 @ 8 μg/mL): 0.5 mg/L | MIC ATB in combination ([3]; MMO UFR243, AF3 @ 8 μg/mL): <=0.25 μg/mL | MIC ATB in combination ([3]; MMO UFR243, CLA @ 4 μg/mL): 32 mg/L | MIC ATB in combination ([3]; MMO UFR244, AF2 @ 8 μg/mL): <=0.25 μg/mL | MIC ATB in combination ([3]; MMO UFR244, AF3 @ 8 μg/mL): <=0.25 μg/mL | MIC ATB in combination ([3]; MMO UFR244, CLA @ 4 μg/mL): 8 mg/L | MIC ATB in combination ([3]; MMO UFR245, AF2 @ 8 μg/mL): 1 mg/L | MIC ATB in combination ([3]; MMO UFR245, AF3 @ 8 μg/mL): <=0.25 μg/mL | MIC ATB in combination ([3]; MMO UFR245, CLA @ 4 μg/mL): 64 mg/L | MIC ATB in combination ([3]; MMO UFR246, AF2 @ 8 μg/mL): 1 mg/L | MIC ATB in combination ([3]; MMO UFR246, AF3 @ 8 μg/mL): 0.5 mg/L | MIC ATB in combination ([3]; MMO UFR246, CLA @ 4 μg/mL): 64 mg/L | MIC ATB in combination ([3]; MMO UFR247, AF2 @ 8 μg/mL): <=0.25 μg/mL | MIC ATB in combination ([3]; MMO UFR247, AF3 @ 8 μg/mL): <=0.25 μg/mL | MIC ATB in combination ([3]; MMO UFR247, CLA @ 4 μg/mL): 32 mg/L | MIC ([3]; strain MMO 200321, genotype TEM-1, CTX-M-15, OXA-1): >128 mg/L | MIC ([3]; strain MMO UFR144, genotype TEM-1, CTX-M-15): >128 mg/L | MIC ATB in combination ([3]; strain MMO UFR145, with AF2 @ 8 μg/mL): >128 mg/L | MIC ATB in combination ([3]; strain MMO UFR145, with AF3 @ 8 μg/mL): >128 mg/L | MIC ATB in combination ([3]; strain MMO UFR145, with CLA @ 4 μg/mL): >128 mg/L | MIC ([3]; strain MMO UFR240, genotype CTX-M-9): 1 mg/L | MIC ([3]; strain MMO UFR241, genotype TEM-1, CTX-M-15): >128 mg/L | MIC ([3]; strain MMO UFR242, genotype TEM-52): 1024 mg/L | MIC ([3]; strain MMO UFR243, genotype DHA-1): 8 mg/L | MIC ([3]; strain MMO UFR244, genotype DHA-1): 4 mg/L | MIC ([3]; strain MMO UFR245, genotype DHA-1): 32 mg/L | MIC ([3]; strain MMO UFR246, genotype DHA-1): 32 mg/L | MIC ([3]; strain MMO UFR247, genotype DHA-1): 16 mg/L | MIC ATB in combination ([4]; KPN 6299, AF2 @ 8 μg/mL): <=0.25 μg/mL | MIC ATB in combination ([4]; KPN 6299, AF3 @ 8 μg/mL): <=0.25 μg/mL | MIC ATB in combination ([4]; KPN 6299, CLA @ 4 μg/mL): 8 mg/L | MIC ATB in combination ([4]; KPN 110376, AF2 @ 8 μg/mL): <0.25 mg/L | MIC ATB in combination ([4]; KPN 110376, AF3 @ 8 μg/mL): <=0.25 μg/mL | MIC ATB in combination ([4]; KPN 110376, CLA @ 4 μg/mL): 128 mg/L | MIC ATB in combination ([4]; KPN 121206, AF2 @ 8 μg/mL): >128 mg/L | MIC ATB in combination ([4]; KPN 121206, AF3 @ 8 μg/mL): >128 mg/L | MIC ATB in combination ([4]; KPN 121206, CLA @ 4 μg/mL): >128 mg/L | MIC ATB in combination ([4]; KPN 131119, AF2 @ 8 μg/mL): <=0.25 μg/mL | MIC ATB in combination ([4]; KPN 131119, AF3 @ 8 μg/mL): <=0.25 μg/mL | MIC ATB in combination ([4]; KPN 131119, CLA @ 4 μg/mL): >128 mg/L | MIC ATB in combination ([4]; KPN 140513, AF2 @ 8 μg/mL): 8 mg/L | MIC ATB in combination ([4]; KPN 140513, AF3 @ 8 μg/mL): 32 mg/L | MIC ATB in combination ([4]; KPN 140513, CLA @ 4 μg/mL): >128 mg/L | MIC ATB in combination ([4]; KPN 160143, AF2 @ 8 μg/mL): <0.25 mg/L | MIC ATB in combination ([4]; KPN 160143, AF3 @ 8 μg/mL): <0.25 mg/L | MIC ATB in combination ([4]; KPN 160143, CLA @ 4 μg/mL): 2 mg/L | MIC ATB in combination ([4]; KPN 190128, AF2 @ 8 μg/mL): 1 mg/L | MIC ATB in combination ([4]; KPN 190128, AF3 @ 8 μg/mL): 1 mg/L | MIC ATB in combination ([4]; KPN 190128, CLA @ 4 μg/mL): 0.5 mg/L | MIC ATB in combination ([4]; KPN 190270, AF2 @ 8 μg/mL): 0.5 mg/L | MIC ATB in combination ([4]; KPN 190270, AF3 @ 8 μg/mL): 0.5 mg/L

Reference: patent publication US20200017495A1, “NOVEL HETEROCYCLIC COMPOUNDS AND THEIR USE IN PREVENTING OR TREATING BACTERIAL INFECTIONS” (priority 2017, published 2020)
